Experiments:
[1] = target: T1, VEGFR-2 (KDR) (Homo sapiens, UniProt P35968); assay: Transcreener Kinase Assay of VEGFR-2 (KDR); type: biochemical; conditions: recombinant human KDR, Transcreener FP
T1 construct: purchased Invitrogen PV3660
Experimental: Transcreener Kinase Assay of VEGFR-2 (KDR)
• 1) Transcreenen™ KINASE Assy kit: Bellbrook Labs., 3003-10K; • 2) Recombinant human KDR: Invitrogen, PV3660; • 3) Poly E4Y (substrate): Sigma, P0275; 5 mg/mL, dissolved in MilliQ water; • 4) Assay buffer: 67 mM HEPES, 0.013% Triton X-100, 27 mM MgCl2, 0.67 mM MnCl2, 1.25 mM DTT, PH 7.4; • 5) 10 mM ATP: Invitrogen, PV3227; • 6) 500 mM EDTA: Invitrogen, 15575-038; • 7) 96 well black Greiner plate: Greiner, 675076.
• 1) Dilute the compound to 5 folds of final concentrations, keeping the DMSO concentration at 5%. The final concentrations are 1, 0.33, 0.11, 0.037, 0.012, 0.004, 0.0014, 0.0005 μM; and the final concentration of DMSO is 1%. • 2) Prepare Enzyme/Substrate stock, Recombinant human KDR and Poly E4Y are both diluted in assay buffer. The final concentration is KDR (0.3 ng/μL), Poly E4Y (62.5 ng/μL). […]
Wherein: • 1) Compound well [ADP] represents the ADP concentration of compound well. • 2) Positive control well [ADP] represents the ADP concentration of 5% DMSO well • 3) Conversion of mP value to ADP concentration based on the formula which determined by standard curve. […] (www.bellbrooklabs.com). • IC50: calculated using XL-Fit 2.0 software.

[2] = tested on: RBL-2H3 cells; assay: IgE-induced Beta-hexosaminidase secretion in RBL-2H3 cells; type: cell-based; conditions: Rattus norvegicus, RBL-2H3, IgE-induced Beta-hexosaminidase secretion, DNP-BSA stimulation
How it was run: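 RBL-2H3 cells sensitized overnight with 0.5 ug/ml SPE-7 IgE, washed, preincubated with compound 20 min at 37° C, then stimulated with DNP-BSA (150 ng/mL stock) for 45 min. Released β-hexosaminidase measured on supernatant with 1 mM 4-nitrophenyl N-acetyl-β-D-glucosaminide, pH 4.5, 1.5 hr at 37° C; absorbance 405 nm after carbonate quench.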

T1 sequence (P35968 20-1356): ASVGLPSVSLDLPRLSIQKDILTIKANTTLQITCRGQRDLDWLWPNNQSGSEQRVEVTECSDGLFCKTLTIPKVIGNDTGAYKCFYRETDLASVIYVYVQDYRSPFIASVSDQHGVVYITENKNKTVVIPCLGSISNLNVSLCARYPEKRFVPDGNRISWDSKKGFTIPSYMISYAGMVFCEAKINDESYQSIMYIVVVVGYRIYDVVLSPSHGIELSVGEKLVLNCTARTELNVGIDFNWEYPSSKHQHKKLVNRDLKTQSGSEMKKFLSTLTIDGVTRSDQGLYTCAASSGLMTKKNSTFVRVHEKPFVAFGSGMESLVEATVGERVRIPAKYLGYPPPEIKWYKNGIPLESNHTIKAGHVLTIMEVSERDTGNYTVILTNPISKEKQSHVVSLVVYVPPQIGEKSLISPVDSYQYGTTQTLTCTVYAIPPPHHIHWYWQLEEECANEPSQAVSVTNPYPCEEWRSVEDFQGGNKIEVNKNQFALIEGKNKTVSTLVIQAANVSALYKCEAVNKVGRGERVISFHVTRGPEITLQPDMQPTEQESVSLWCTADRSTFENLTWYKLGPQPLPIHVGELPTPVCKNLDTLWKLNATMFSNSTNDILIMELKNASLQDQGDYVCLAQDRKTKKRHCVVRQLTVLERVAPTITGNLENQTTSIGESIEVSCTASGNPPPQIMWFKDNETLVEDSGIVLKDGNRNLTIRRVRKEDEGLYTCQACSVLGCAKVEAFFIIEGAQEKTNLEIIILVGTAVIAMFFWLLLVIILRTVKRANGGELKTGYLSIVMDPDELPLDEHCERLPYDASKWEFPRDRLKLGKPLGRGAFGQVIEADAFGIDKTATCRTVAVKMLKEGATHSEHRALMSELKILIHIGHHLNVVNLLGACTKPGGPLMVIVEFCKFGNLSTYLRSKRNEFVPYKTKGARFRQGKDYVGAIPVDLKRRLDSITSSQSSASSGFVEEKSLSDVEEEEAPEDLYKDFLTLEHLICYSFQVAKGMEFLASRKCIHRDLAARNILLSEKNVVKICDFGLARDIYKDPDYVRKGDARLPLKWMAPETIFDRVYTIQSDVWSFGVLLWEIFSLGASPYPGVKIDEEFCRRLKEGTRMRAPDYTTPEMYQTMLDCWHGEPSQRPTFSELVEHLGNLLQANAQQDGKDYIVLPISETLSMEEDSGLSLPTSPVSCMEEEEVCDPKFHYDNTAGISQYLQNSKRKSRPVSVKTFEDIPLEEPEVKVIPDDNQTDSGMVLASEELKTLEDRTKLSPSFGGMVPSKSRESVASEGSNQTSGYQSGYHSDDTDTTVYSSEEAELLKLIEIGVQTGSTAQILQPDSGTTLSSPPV

| IC50 [1] [nM] | IC50 [2] [nM] | SMILES |
| --- | --- | --- |
| 748 | 37 | CC(C)(O)c1ccc(-c2cc3nccnc3c(OC[C@@H]3CN(S(C)(=O)=O)CCO3)n2)cc1 [Compound 219] |
| 1130 | 52 | CC(=O)N1CCO[C@H](COc2nc(-c3ccc4c(c3)CCOC4(C)C)cc3nccnc23)C1 [Compound 300] |

From patent publication US20170152258A9, “Substituted Pyridopyrazines as Syk Inhibitors” (HUTCHISON MEDIPHARMA LIMITED, priority 2012, published 2017)
